Measurements from EP0487382A1, “Use of buflomedil for the protection of the myocardium by coronary angioplasty” (LABORATOIRE L. LAFON, priority 1990, dated 1992).

Tests used:
[1] = tested on: chiens; test: Coronary balloon angioplasty occlusion (15 min) and reperfusion in anaesthetised dogs, first series; assay type: in vivo
Description: (§1) 1 - On a réalisé des essais comparatifs chez des chiens auxquels on a administré par voie intraveineuse en 15 minutes : • soit du buflomédil (chlorhydrate) à la dose de 10 mg/kg; • soit un placebo.
Le protocole opératoire était le suivant :
(§2) les chiens ont reçu une prémédication consistant en 1,0 mg par kg de sulfate de morphine après une nuit de diète ainsi que 325 mg d'aspirine par voie orale.
(§3) Les chiens ont été anesthésiés avec 12,5 mg/kg de thiopental et 72 mg/kg de chloralose par voie intraveineuse. On met en place un cathéter au niveau de l'artère fémorale pour la mesure de la pression artérielle et une canule sur la veine fémorale pour l'administration du produit à tester. L'artère carotide gauche reçoit une canule pour la mise en place du cathéter d'angioplastie, tandis que l'on met en place un cathéter au niveau du ventricule gauche via l'artère fémorale contralatérale.
Les animaux sont alors héparinisés avec 500 unités U.I. par kg par voie I.V. On procède alors à l'administration du produit à tester ou du placebo à raison, pour le buflomédil, de 10 mg par mn. On administre ensuite de la lidocaïne par voie I.V. à raison de 1 mg/kg sous forme de bolus, puis par perfusion à raison de 1 mg par mn. […]

[2] = tested on: chiens; test: Coronary balloon occlusion (15 min) with follow-up of reperfusion in dogs, second series; assay type: in vivo; conditions: 10 mg/kg i.v.
Description: as §1, §2, §3
Les animaux sont alors héparinisés avec 500 unités U.I. par kg par voie I.V. On procède alors à l'administration du produit à tester ou du placebo à raison, pour le buflomédil, de 10 mg par mn. On administre ensuite de la lidocaïne par voie I.V. à raison de 1 mg/kg sous forme de bolus, puis par perfusion à raison de 1 mg par mn.
30 mn après la fin de la perfusion, on met en place un ballonnet d'angioplastie de 2,5-3,5 mm choisi en fonction de la taille des artères coronaires dans l'artère coronaire descendante antérieure gauche. Le ballon a été gonflé à une pression de 4.10⁵ Pa pendant 15 mn.
2 - Dans une deuxième série d'essais comparatifs, on a utilisé le même mode opératoire et les mêmes produits (buflomédil chlorhydrate à la dose de 10 mg/kg d'une part et placebo d'autre part) et on a suivi la reperfusion après 15 minutes d'occlusion avec un ballonnet.

[3] = at the end of the occlusion, versus placebo

COc1cc(OC)c(C(=O)CCCN2CCCC2)c(OC)c1 [buflomédil, 4-(1-pyrrolidinyl)-1-(2,4,6-triméthoxyphényl)-1-butanone]
flux sanguins tissulaires au niveau du myocarde ([1]; 10 mg/kg i.v., measured during ischaemia in the ischaemic regions, versus placebo (Figure)): plus élevés
fibrillation ventriculaire lors de la reperfusion ([1]; buflomédil (chlorhydrate) 10 mg/kg i.v. over 15 min, 15 min balloon occlusion, placebo: 4 cas sur 10): n'a pas observé de fibrillation ventriculaire
fraction d'éjection ([2]; 30 minutes after reperfusion, placebo 69 %): 89 % de la valeur normale du groupe
fraction d'éjection ([2]; 60 minutes after reperfusion, placebo 74 %): 95%
zone de dysfonctionnement ([2]; after reperfusion, versus placebo): diminution
fraction d'éjection [2, 3]: n'a pas observé à la fin de l'occlusion de différence
perfusion sanguine transmurale [2, 3]: n'a pas observé à la fin de l'occlusion de différence
flux pendant la reperfusion ([2]; during reperfusion, versus placebo): flux accru
